Tests used:
[1] = target: T1, yeast GCN5 (Saccharomyces cerevisiae, UniProt Q03330); test: GCN5 direct radioactive HAT assay; type: biochemical; conditions: 10 μM compound; read-out: Percent inhibition of acetyltransferase, GCN5
T1 construct: made in house
Experimental: (§1) PCAF reactions were performed in 100 mM HEPES, pH 7.9, and contained 200 μM TPP, 5 mM MgCl2, 1 mM DTT, 50 mM NaCl, 0.05 mg/mL BSA, 200 μM NAD, 2.4 mM α-KG, 30 μM acetyl-CoA, 0.037 units α-KGDH, 3.3% DMSO, and 10 μM inhibitor. Reactions took place at 30° C. Reactions were initiated by addition of 10 nM PCAF and were followed at 340 nm over the linear portion of the curve below 10% turnover. AANAT reactions were performed in 100 mM NH4 OAc, pH 6.8, and contained 200 μM TPP, 5 mM MgCl2, 1 mM DTT, 50 mM NaCl, 0.05 mg/mL BSA, 200 μM NAD, 2.4 mM α-KG, 200 μM AcCoA, 0.1 units α-KGDH, 3.3% DMSO, and 10 μM inhibitor. Reactions took place at 25° C. Reactions were initiated with addition of 65 nM AANAT, and followed at 340 nm, as above. Percent inhibition values were compared to those with p300, which were repeated using the protocol given above. […]
(§2) HAT assays with yeast GCN5, SAS complex, MOZ, and Rtt109/Vps75 complex used the direct radioactive assay described above. […] The amount of enzyme used in each assay was estimated by comparing Coomassie Blue staining of samples with bovine serum albumin standards, analyzed by SDS-PAGE. […] The rate of ^14C-incorporation into histone H3 was quantified by autoradiography. […]

[2] = target: T2, Rtt109/Vps75 complex (Saccharomyces cerevisiae, UniProt Q07794); test: Rtt109 direct radioactive HAT assay; type: biochemical; conditions: 10 μM compound; read-out: Percent inhibition of acetyltransferase, Rtt109
T2 construct: made in house
Experimental: as §1, §2

[3] = tested on: LN382 glioblastoma cells; test: AlamarBlue growth inhibition, LN382; type: cell-based; conditions: LN382, 72 hours
Experimental: (§3) Dose response curves were generated using the AlamarBlue® assay (Invitrogen, Carlsbad, Calif.).
(§4) When inhibition was assessed using the AlamarBlue® assay (Invitrogen, Carlsbad, Calif.), cells were initially seeded at 500 cells per well in a 96-well plate. AlamarBlue® is a non-toxic reagent that measures cellular metabolic activity. Its main ingredient is resazurin, a non-fluorescent indicator dye that is reduced to bright red-fluorescent resorufin in metabolically active cells. AlamarBlue® was added to growth medium at 1/10 of the total volume (e.g., 20 μl in 200 μl total volume). […] Fluorescence reading was taken from the same plate every day for 5 days to ensure that the saturation point was not reached. Fluorescence intensity is proportional to the number of live cells in the plate.

[4] = tested on: U87 glioblastoma cells; test: AlamarBlue growth inhibition, U87; type: cell-based; conditions: U87, 72 hours
Experimental: as §3, §4

[5] = tested on: H247 glioblastoma cells; test: AlamarBlue growth inhibition, H247; type: cell-based; conditions: H247, 72 hours
Experimental: as §3, §4

[6] = tested on: D54 glioblastoma cells; test: AlamarBlue growth inhibition, D54; type: cell-based; conditions: D54, 72 hours
Experimental: as §3, §4

[7] = tested on: WM35 melanoma cells; test: senescence-associated beta galactosidase staining; type: cell-based, human; conditions: 72 hours, low and high serum concentrations
Experimental: FIG. 14A includes scatter plots. […] WM35 melanoma cells were also treated with camptothecin as a positive control for apoptosis. FIGS. 14B and 14C include images of the treated cells stained for senescence-associated beta galactosidase.

[8] = tested on: WM983A melanoma cells; test: cell cycle analysis, propidium iodide FACS; type: cell-based, human; conditions: 48 hours
Experimental: The degree of growth arrest observed in these experiments corresponds with the decrease in ^3H-thymidine incorporation described above.
Cells treated with C646 or DMSO were stained with propidium iodide (PI). Briefly, equal number of cells (greater than 10 6) in 0.5 ml PBS were fixed in 70% ethanol for at least 2 h at 4° C. A stock staining solution containing 10 ml of 0.1% Triton X-100 in PBS, 400 μl of RNase cocktail (equivalent of −200 units of RNase A) (Ambion), and 200 μl of 1 mg/ml PI was prepared. Fixed cells were spun at 200 g for 5 min (Beckman Coulter Allegra® X-12R, with an SX4750A rotor), re-hydrated in 5 ml PBS, and spun again to remove all traces of ethanol. Cells were stained with 1 ml staining solution for 20 min at 37° C., then immediately analyzed on a FACSCalibur flow cytometer (BD Biosciences) at the Johns Hopkins Flow Cytometry Core Facility. Data acquisition and analysis were performed with the CellQuest software (BD). WinMDI 2.9 (http://facs.scripps.edu.software.html) was also used for data presentation.

[9] = tested on: Mel-1 melanoma cells; test: combination with chemotherapy, total cell number; type: cell-based; conditions: 2 μM C646, 24 hours before chemotherapy agent
Experimental: The cells were grown for 24 hours in medium. The cells were given fresh medium and either 1 μM of cisplatin or 200 μM of temozolamide was added. Total cell number was counted on Day 0, at 24 hours, and 48 hours after addition of cisplatin or temozolamide.
After 24 hours, the treated and mock-treated cells were given fresh medium, and the cells were treated with cisplatin or temozolamide for 48 hours.

[10] = tested on: WM983A melanoma cells; test: 3H-thymidine incorporation, WM983A; conditions: Homo sapiens, read-out: IC50 (proliferation, 3H-thymidine incorporation)

T2 sequence (Q07794 whole entry): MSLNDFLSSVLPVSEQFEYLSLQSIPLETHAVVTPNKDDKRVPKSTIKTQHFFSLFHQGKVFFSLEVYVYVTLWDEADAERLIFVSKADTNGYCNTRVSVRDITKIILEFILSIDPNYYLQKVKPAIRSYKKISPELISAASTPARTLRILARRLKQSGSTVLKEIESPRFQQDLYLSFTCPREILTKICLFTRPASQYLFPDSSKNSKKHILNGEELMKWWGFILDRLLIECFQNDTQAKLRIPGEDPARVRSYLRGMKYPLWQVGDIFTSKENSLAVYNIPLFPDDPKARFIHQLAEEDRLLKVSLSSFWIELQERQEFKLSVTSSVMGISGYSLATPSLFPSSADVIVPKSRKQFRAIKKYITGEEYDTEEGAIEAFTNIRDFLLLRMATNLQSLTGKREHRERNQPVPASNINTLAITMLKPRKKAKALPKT
T2 sequence (P53853 whole entry partner): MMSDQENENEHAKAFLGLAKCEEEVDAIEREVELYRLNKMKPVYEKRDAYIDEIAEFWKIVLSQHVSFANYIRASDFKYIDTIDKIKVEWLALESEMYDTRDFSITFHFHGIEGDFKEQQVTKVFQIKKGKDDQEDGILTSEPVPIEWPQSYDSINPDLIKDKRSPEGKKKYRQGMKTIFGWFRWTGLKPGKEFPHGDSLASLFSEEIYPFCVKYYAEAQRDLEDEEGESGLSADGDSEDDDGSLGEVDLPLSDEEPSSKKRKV
T1 sequence (Q03330 whole entry): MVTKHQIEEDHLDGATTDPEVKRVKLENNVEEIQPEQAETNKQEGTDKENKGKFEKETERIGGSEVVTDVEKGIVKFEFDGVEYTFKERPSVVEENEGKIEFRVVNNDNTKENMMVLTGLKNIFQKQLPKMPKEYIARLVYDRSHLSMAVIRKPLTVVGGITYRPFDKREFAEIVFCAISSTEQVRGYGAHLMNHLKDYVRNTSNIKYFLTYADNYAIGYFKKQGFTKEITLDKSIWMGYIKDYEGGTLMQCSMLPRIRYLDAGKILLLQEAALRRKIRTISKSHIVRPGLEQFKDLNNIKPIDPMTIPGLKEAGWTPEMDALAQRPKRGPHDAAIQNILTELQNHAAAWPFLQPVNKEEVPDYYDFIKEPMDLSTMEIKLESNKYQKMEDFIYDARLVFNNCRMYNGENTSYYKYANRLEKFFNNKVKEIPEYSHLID

inhibition at 10 µM [1]: < 10% | inhibition at 10 µM [2]: < 10% | IC50 [3]: 35.5 µM | IC50 [4]: 15.1 µM | IC50 [5]: 14.4 µM | IC50 [6]: 9.3 µM | IC50 [10]: 10 to 20 µM
SMILES: CC1=NN(c2ccc(C(=O)O)cc2)C(=O)C1=Cc1ccc(-c2cc(C)c(C)cc2[N+](=O)[O-])o1 [Compound C646, 4-(4,5-dihydro-3-methyl-4-((5-(4,5-dimethyl-2-nitrophenyl)furan-2-yl)methylene)-5-oxopyrazol-1-yl)benzoic acid]
senescence [7]: induced sensecence in WM35 cells | cell cycle distribution [8]: decreased the number of cells in S and G2 phase | sensitization to chemotherapy [9]: sensitized the melanoma cells to temozolamide

— patent US9005670B2, “Use of histone acetyltransferase inhibitors as novel anti-cancer therapies” (The Johns Hopkins University, priority 2010, dated 2015)
